Assay results as given in ChEMBL document CHEMBL6109075, “Identification of constrained peptidomimetics carrying a Michael acceptor warhead as antitrypanosomal agents” (Eur J Med Chem, 2025).

Assays:
[1] = biological target: Rhodesain (Trypanosoma brucei rhodesiense) (UniProt Q95PM0); assay: Inhibition of Trypanosoma brucei rhodesiense rhodesain expressed in Pichia pastoris using Cbz-Phe-Arg-AMC as substrate assessed as inactivation constant incubated for 30 mins by fluorescence assay
Rhodesain = Rhodesain (Trypanosoma brucei rhodesiense, UniProt Q95PM0); assay: Inhibition of Trypanosoma brucei rhodesiense rhodesain expressed in Pichia pastoris using Cbz-Phe-Arg-AMC as substrate assessed as inhibition constant incubated for 30 mins by fluorescence assay
[2] = biological target: Rhodesain (Trypanosoma brucei rhodesiense) (UniProt Q95PM0); assay: Inhibition of Trypanosoma brucei rhodesiense rhodesain expressed in Pichia pastoris using Cbz-Phe-Arg-AMC as substrate assessed as second order rate constant obtained from ratio of Kinact by Ki incubated for 30 mins by fluorescence assay
Trypanosoma brucei = assay: Antitrypanosomal activity against Trypanosoma brucei incubated for 24 hrs by luminescence based ClarioStar plate reader analysis; type: functional, organism-based
[3] = Cytotoxicity against human SH-SY5Y cells assessed as reduction in cell viability incubated for 24 hrs by MTT assay; type: toxicity, cell-based
[4] = biological target: Rhodesain (Trypanosoma brucei rhodesiense) (UniProt Q95PM0); assay: Inhibition of Trypanosoma brucei rhodesiense rhodesain expressed in Pichia pastoris using Cbz-Phe-Arg-AMC as substrate at 20 uM incubated for 30 mins by fluorescence assay relative to control

Chain of Rhodesain (Trypanosoma brucei rhodesiense) (Q95PM0 1-450): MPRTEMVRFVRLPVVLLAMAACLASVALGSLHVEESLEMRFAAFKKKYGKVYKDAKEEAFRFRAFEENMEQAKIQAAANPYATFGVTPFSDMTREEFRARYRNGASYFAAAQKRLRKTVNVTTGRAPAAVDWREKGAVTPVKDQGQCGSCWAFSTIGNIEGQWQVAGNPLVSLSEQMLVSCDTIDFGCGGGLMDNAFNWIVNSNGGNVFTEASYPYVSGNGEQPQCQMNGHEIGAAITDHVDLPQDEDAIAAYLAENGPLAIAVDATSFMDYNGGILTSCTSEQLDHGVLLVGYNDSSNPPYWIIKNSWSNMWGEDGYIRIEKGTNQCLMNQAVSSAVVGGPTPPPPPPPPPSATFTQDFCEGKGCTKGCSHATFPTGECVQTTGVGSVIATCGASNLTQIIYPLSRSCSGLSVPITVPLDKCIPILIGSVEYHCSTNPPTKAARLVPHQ
Chain of Rhodesain (Q95PM0 whole entry): as the sequence (Q95PM0 1-450) above

Kinact [1] | Ki (Rhodesain) | Ratio [2] | EC50 (Trypanosoma brucei) | inhibition [4] | Compound | CC50 at 24 h [3]
0.019 min⁻¹ | 4880 nM | 4.1 10^3/M/min | 910 nM |  | CC(=O)/C=C/[C@H](CCc1ccccc1)NC(=O)[C@@H]1Cc2ccccc2CN1C(=O)c1ccccc1F | > 100000 nM
 |  |  | 2600 nM |  | CC(=O)/C=C/[C@H](CCc1ccccc1)NC(=O)[C@H](Cc1ccccc1)NC(=O)[C@H](Cc1ccccc1)NC(=O)OCc1ccccc1 | 
 |  |  |  | 40% | CC(=O)/C=C/[C@H](CCc1ccccc1)NC(=O)[C@@H]1Cc2ccccc2CN1C(=O)Nc1ccc(Cl)cc1C | 
 |  |  |  | 14% | CC(=O)/C=C/[C@H](CCc1ccccc1)NC(=O)[C@@H]1Cc2ccccc2CN1C(=O)Nc1ccc(C)cc1 | 
0.001 min⁻¹ | 16 nM | 68.5 10^3/M/min | 580 nM |  | CC(=O)/C=C/[C@H](CCc1ccccc1)NC(=O)[C@@H]1Cc2ccccc2CN1C(=O)[C@H](CC(C)C)NC(=O)OCc1ccccc1 | > 100000 nM
 |  |  |  | 11% | CC(=O)/C=C/CNC(=O)[C@@H]1Cc2ccccc2CN1C(=O)c1ccc(F)cc1F | 
0.001 min⁻¹ | 22 nM | 47.9 10^3/M/min | 570 nM |  | CC(=O)/C=C/[C@H](CCc1ccccc1)NC(=O)[C@@H]1Cc2ccccc2CN1C(=O)[C@H](CC1CCCCC1)NC(=O)OCc1ccccc1 | > 100000 nM
 |  |  |  | 20.2% | CC(=O)/C=C/[C@H](C)NC(=O)[C@@H]1Cc2ccccc2CN1C(=O)c1ccc(F)cc1F | 
0.001 min⁻¹ | 11 nM | 75.6 10^3/M/min | 420 nM |  | CC(=O)/C=C/[C@H](CCc1ccccc1)NC(=O)[C@@H]1Cc2ccccc2CN1C(=O)[C@H](Cc1ccccc1)NC(=O)OCc1ccccc1 | > 100000 nM
 |  |  |  | 18.4% | CC(=O)/C=C/[C@H](Cc1ccccc1)NC(=O)[C@@H]1Cc2ccccc2CN1C(=O)c1ccc(F)cc1F | 
 |  |  |  | 32% | CC(=O)/C=C/[C@H](CCc1ccccc1)NC(=O)[C@@H]1Cc2ccccc2CN1C(=O)c1c(F)cccc1F | 
 |  |  | 3100 nM |  | CC(=O)/C=C/[C@H](CCc1ccccc1)NC(=O)[C@H](Cc1ccccc1)NC(=O)[C@H](CC(C)C)NC(=O)OCc1ccccc1 | 
 |  |  |  | 18% | CC(=O)/C=C/[C@H](CCc1ccccc1)NC(=O)[C@@H]1Cc2ccccc2CN1C(=O)OC(C)(C)C | 
0.015 min⁻¹ | 1920 nM | 8 10^3/M/min | 850 nM |  | CC(=O)/C=C/[C@H](CCc1ccccc1)NC(=O)[C@@H]1Cc2ccccc2CN1C(=O)c1ccc(F)cc1 | > 100000 nM
 |  |  |  | 26% | CC(=O)/C=C/[C@H](CCc1ccccc1)NC(=O)[C@@H]1Cc2ccccc2CN1C(=O)[C@H](C)NC(=O)OCc1ccccc1 | 
0.021 min⁻¹ | 700 nM | 30.1 10^3/M/min | 1350 nM |  | CC(=O)/C=C/[C@H](CCc1ccccc1)NC(=O)[C@@H]1Cc2ccccc2CN1C(=O)c1cccc(F)c1 | > 100000 nM
0.012 min⁻¹ | 90 nM | 146 10^3/M/min | 1210 nM |  | CC(=O)/C=C/[C@H](CCc1ccccc1)NC(=O)[C@@H]1Cc2ccccc2CN1C(=O)c1ccc(F)cc1F | > 100000 nM
0.005 min⁻¹ | 720 nM | 6.7 10^3/M/min | 670 nM |  | CC(=O)/C=C/[C@H](CCc1ccccc1)NC(=O)[C@@H]1Cc2ccccc2CN1C(=O)OCc1ccccc1 | > 100000 nM
 |  |  | 1300 nM |  | CC(=O)/C=C/[C@H](CCc1ccccc1)NC(=O)[C@H](Cc1ccccc1)NC(=O)[C@H](CC1CCCCC1)NC(=O)OCc1ccccc1 | 
